# Literature values as cited in patent publication US5043321A, “Adrenocorticotropin release inhibiting factor” (Center for Innovative Technology, priority 1988, dated 1991).
# No end group written: not given here.
# Tests used:
# [1] = test system: hemorrhage induced corticosterone secretion; conditions: Hattori et al
# [2] = test system: rat anterior pituitary gland; conditions: Okajima et al
Substance,effect on hemorrhage induced corticosterone secretion in vivo [1],effect on plasma ACTH ([1]; preliminary study),most effective concentration for inhibition of ACTH secretion [2] [nM],effect on CRF induced ACTH secretion ([2]; rat anterior pituitary gland in vitro)
"alpha-hANP: alpha-hANP (presumably ANF[1-28]) used by Hattori et al (SLRRSSCFGGRMDRIGAQSGLGCNSFRY; ends and bridges not checked; cysteine pairing not given here; UniProt P01160 124-151, looked up)",no effect,inhibition of plasma ACTH that was not dose dependent,,
delta sleep inducing peptide [DSIP],,,10,inhibits CRF induced ACTH secretion
